# Data from patent US7396844B1, “Benzamidine derivatives” (Ajinomoto Co., Inc., priority 1997, dated 2008).
# Where a name gives a salt, the structure may show the parent alone. Read-outs that look alike come from different tables or passages of the source.
# How the values were obtained:
# [1] = target: T1, activated human blood coagulation factor X (Homo sapiens, UniProt P00742); assay: Determination of activity of inhibiting the activated blood coagulation factor X; format: biochemical; details: for IC50: read-out: Activity of inhibiting activated blood coagulation factor X (pIC50) (converted)
# T1 construct: purchased Enzyme Research Co
# Protocol: 130 μl of 100 mM Tris-HCl buffer adjusted to pH 8.4 was added to 10 μl of an aqueous solution of a compound to be tested. Then 10 μl of a 0.5 unit/ml solution of activated human blood coagulation factor X (a product of Enzyme Research Co.) in Tris-HCl buffer hydrochloride of pH 8.4 was added to the resultant mixture. After the incubation at room temperature for 10 minutes, 50 μl of a solution of N-benzoyl-L-isoleucyl-L-glutamyl-glycyl-L-arginyl-p-nitroanilide hydrochloride (a product of Peptide Institute, Inc.) adjusted to 0.8 mM with Tris-HCl buffer (pH 8.4) was added thereto. The absorbance was determined and then the initial reaction rate was determined. A control was prepared in the same manner as that described above except that the solution of the compound to be tested was replaced with 10 μl of Tris-HCl buffer adjusted to pH 8.4.
# human thrombin = target: T2, human thrombin (Homo sapiens, UniProt P00734); assay: Determination of thrombin-inhibiting activity; format: biochemical; details: for IC50: read-out: Thrombin-inhibiting activity (pIC50) (converted)
# T2 construct: human thrombin (a product of SIGMA Co.); purchased SIGMA Co
# Protocol: 130 μl of 100 mM Tris-HCl buffer adjusted to pH 8.4 was added to 10 μl of an aqueous solution of a test compound. Then 10 μl of a solution of human thrombin (a product of SIGMA Co.) adjusted to 2 units/ml with Tris-HCl buffer of pH 8.4 was added to the resultant mixture. […] The absorbance was determined and then the initial reaction rate was determined. A control was prepared in the same manner as that described above except that the solution of the compound to be tested was replaced with 10 μl of tris hydrochloride buffer adjusted to pH 8.4.
# [2] = Table 1, negative logarithm of concentration inhibiting 50% of initial rate, Tris-HCl pH 8.4, room temperature
# [3] = Table 1, negative logarithm of concentration inhibiting 50% of initial rate, substrate S-2238, Tris-HCl pH 8.4
# [4] = Table 2, same manner as Example 93
# [5] = Table 2, same manner as Example 94
# T1 sequence (P00742 235-488 limits assumed): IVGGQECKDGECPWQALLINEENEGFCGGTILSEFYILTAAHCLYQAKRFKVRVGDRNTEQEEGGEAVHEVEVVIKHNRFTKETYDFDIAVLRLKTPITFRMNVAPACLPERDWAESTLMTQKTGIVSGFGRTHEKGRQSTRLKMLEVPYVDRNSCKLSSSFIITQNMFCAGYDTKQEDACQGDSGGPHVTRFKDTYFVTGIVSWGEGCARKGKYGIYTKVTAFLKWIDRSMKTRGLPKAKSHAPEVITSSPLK
# T1 sequence (P00742 41-179 partner limits assumed): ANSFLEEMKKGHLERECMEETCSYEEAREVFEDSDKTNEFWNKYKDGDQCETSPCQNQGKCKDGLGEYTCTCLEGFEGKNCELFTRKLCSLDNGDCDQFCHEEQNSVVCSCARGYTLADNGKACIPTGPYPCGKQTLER
SMILES,"IC50 [1, 2]",IC50 (human thrombin; [3]),further results
"CN(C)C(=O)c1ccc(C(=O)N[C@@H](COc2cccc(C(=N)N)c2)CC(=O)O)cc1 [Compound of Ex. 56, (3R)-4-(3-amidinophenoxy)-3-[(4-dimethylcarbamoylbenzoyl)amino]butyric acid trifluoroacetate]",15.8 nM,> 1000 µM,–
"N=C(N)c1cccc(OCCNC(=O)c2ccc(CC3CCNCC3)cc2)c1 [Compound of Ex. 43, N-[2-(3-amidinophenoxy)ethyl]-4-[(piperidine-4-yl)methyl]benzamide bistrifluoroacetate]",251 nM,50.1 µM,–
"CCS(=O)(=O)N[C@H](COc1cccc(C(=N)N)c1)Cc1ccc(OC2CCN(C(C)=N)CC2)cc1 [Compound of Ex. 160, 3-[(2S)-2-(ethanesulfonylamino)-3-[4-(1-acetimidoyl-4-piperidyloxy)phenyl]propoxy]benzamidine bistrifluoroacetate]",–,–,"IC50 [1, 4]: 316 nM; IC50 (human thrombin; [5]): 158 µM"
"N=C(N)c1ccc(C(=O)N(CCOc2cccc(C(=N)N)c2)Cc2ccccc2)cc1 [Compound of Ex. 114, N-[2-(3-amidinophenoxy)ethyl]-N-phenylmethyl-4-amidinobenzamide bistrifluoroacetate]",–,–,"IC50 [1, 4]: 50.1 nM; IC50 (human thrombin; [5]): 79.4 µM"
"N=C(N)Nc1ccc(C(=O)N[C@@H](COc2cccc(C(=N)N)c2)CC(=O)O)cc1 [Compound of Ex. 57, (3R)-4-(3-amidinophenoxy)-3-[(4-guanidinobenzoyl)amino]butyric acid bistrifluoroacetate]",12.6 nM,> 1000 µM,–
"N=C(N)c1cccc(OC[C@@H](CC(=O)O)NC(=O)c2ccc(N3CCCC3)cc2)c1 [Compound of Ex. 58, (3R)-4-(3-amidinophenoxy)-3-[4-(pyrrolidine-1-yl)benzoylamino]butyric acid trifluoroacetate]",25.1 nM,> 1000 µM,–
"N=C(N)c1cccc(OCCNC(=O)c2ccc(C(=O)N3CCCC3)cc2)c1 [Compound of Ex. 9, N-[2-(3-amidinophenoxy)ethyl]-4-(1-pyrrolidinecarbonyl)benzamide trifluoroacetate]",20 nM,50.1 µM,–
"CN(C)C(=O)c1ccc(C(=O)NCCOc2cc(C(=N)N)ccc2CC(=O)C(=O)O)cc1 [Compound of Ex. 80, 3-[4-amidino-2-[2-[4-(dimethylcarbamoyl)benzoylamino]ethoxy]phenyl]-2-oxo-propionic acid trifluoroacetate]",12.6 nM,39.8 µM,–
"N=C(N)c1ccc(C(=O)N[C@@H](CCC(=O)O)COc2cccc(C(=N)N)c2)cc1 [Compound of Ex. 83, (4S)-4-(4-amidinobenzoylamino)-5-(3-amidinophenoxy)pentanoic acid bistrifluoroacetate]",158 nM,> 1000 µM,–
"CN(C)C(=O)c1ccc(C(=O)NCCOc2cccc(C(=N)N)c2)cc1 [Compound of Ex. 3, N-[2-(3-amidinophenoxy)ethyl]-4-(N,N-dimethylcarbamoyl)benzamide trifluoroacetate]",25.1 nM,–,–
"N=C(N)c1ccc(CC(=O)C(=O)O)c(OCCNC(=O)c2ccc(CC3CCNCC3)cc2)c1 [Compound of Ex. 81, 3-[4-amidino-2-[2-[4-(4-piperidylmethyl)benzoylamino]ethoxy]phenyl]-2-oxopropionic acid bistrifluoroacetate]",79.4 nM,31.6 µM,–
"N=C(N)c1ccc(C(=O)N[C@H](CCOc2cccc(C(=N)N)c2)C(=O)O)cc1 [Compound of Ex. 92, (2R)-2-(4-amidinobenzoylamino)-4-(3-amidinophenoxy)butanoic acid bistrifluoroacetate]",50.1 nM,> 1000 µM,–
"N=C(N)c1ccc(C(=S)NCCOc2cccc(C(=N)N)c2)cc1 [Compound of Ex. 1, N-[2-(3-amidinophenoxy)ethyl]-4-amidinobenzthioamide bistrifluoroacetate]",398 nM,398 µM,–
"CCOC(=O)C[C@H](COc1cccc(C(=N)N)c1)NC(=O)c1ccc(N2CCCC2)cc1 [Compound of Ex. 59, ethyl (3R)-4-(3-amidinophenoxy)-3-[4-(pyrrolidine-1-yl)benzoylamino]butyrate trifluoroacetate]",39.8 nM,15.8 µM,–
CC(=N)N1CCC(Oc2ccc(C[C@@H](COc3cccc(C(=N)N)c3)NS(=O)(=O)c3ccc(P(=O)(O)O)cc3)cc2)CC1.O=C(O)C(F)(F)F.O=C(O)C(F)(F)F [Compound of Ex. 74],–,–,"Activity of inhibiting activated blood coagulation factor X (pIC50) [1, 2]: 7.6; Thrombin-inhibiting activity (pIC50) (human thrombin; [3]): <3.7"
"N=C(N)c1ccc(C(=O)Nc2cccc(COc3cccc(C(=N)N)c3)c2)cc1.O=C(O)C(F)(F)F.O=C(O)C(F)(F)F [Compound of Ex. 69, N-[3-(3-amidinophenoxymethyl)]phenyl-4-amidinobenzamide bistrifluoroacetate]",–,–,"Activity of inhibiting activated blood coagulation factor X (pIC50) [1, 2]: 6.6; Thrombin-inhibiting activity (pIC50) (human thrombin; [3]): 4.5"
"N=C(N)c1cccc(OCCNC(=O)c2ccc(CCc3ccncc3)cc2)c1 [Compound of Ex. 14, N-[2-(3-amidinophenoxy)ethyl]-4-[2-(pyridine-4-yl)ethyl]benzamide bistrifluoroacetate]",50.1 nM,20 µM,–
CCOP(=O)(O)c1ccc(S(=O)(=O)N[C@H](COc2cccc(C(=N)N)c2)Cc2ccc(OC3CCN(C(C)=N)CC3)cc2)cc1.O=C(O)C(F)(F)F.O=C(O)C(F)(F)F [Compound of Ex. 73],–,–,"Activity of inhibiting activated blood coagulation factor X (pIC50) [1, 2]: 8.1; Thrombin-inhibiting activity (pIC50) (human thrombin; [3]): 3.9"
"CN(C)C(=N)c1ccc(C(=O)NCCOc2cccc(C(=N)N)c2)cc1 [Compound of Ex. 7, N-[2-(3-amidinophenoxy)ethyl]-4-(N,N-dimethylamidino)benzamide bistrifluoroacetate]",79.4 nM,–,–
"CCOC(=O)C[C@H](COc1cccc(C(=N)N)c1)NC(=O)c1ccc(-c2ccccc2)cc1 [Compound of Ex. 54, ethyl (3R)-3-[(biphenyl-4-carbonyl)amino]-4-(3-amidinophenoxy)butyrate trifluoroacetate]",50.1 nM,25.1 µM,–
"CC(=N)N1CCC(Oc2ccc(C(=O)NCCOc3cc(C(=N)N)ccc3CC(=O)C(=O)O)cc2)CC1 [Compound of Ex. 79, 3-[4-amidino-2-[2-[4-(1-acetimidoyl-4-piperidyloxy)benzoylamino]ethoxy]phenyl]-2-oxopropionic acid bistrifluoroacetate]",20 nM,25.1 µM,–
"CN(C)C(=O)c1ccc(C(=O)CCCOc2cccc(C(=N)N)c2)cc1 [Compound of Ex. 64, 4-[4-(3-amidinophenoxy)butyryl]-N,N-dimethylbenzamide trifluoroacetate]",63.1 nM,–,–
"N=C(N)c1ccc(NC(=O)CCCOc2cccc(C(=N)N)c2)cc1 [Compound of Ex. 67, 4-(3-amidinophenoxy)-N-(4-amidinophenyl)butyramide bistrifluoroacetate]",316 nM,316 µM,–
"N=C(N)c1ccc(C(=O)N[C@H](CCC(=O)O)COc2cccc(C(=N)N)c2)cc1 [Compound of Ex. 121, (4R)-4-(4-amidinobenzoylamino)-5-(3-amidinophenoxy)pentanoic acid bistrifluoroacetate]",–,–,"IC50 [1, 4]: 50.1 nM; IC50 (human thrombin; [5]): > 1000 µM"
"N=C(N)c1ccc(C(=O)N[C@@H](COc2cccc(C(=N)N)c2)CC(=O)O)cc1 [Compound of Ex. 119, (3R)-3-(4-amidinobenzoylamino)-4-(3-amidinophenoxy)butanoic acid bistrifluoroacetate]",–,–,"IC50 [1, 4]: 25.1 nM; IC50 (human thrombin; [5]): > 1000 µM"
